Experimental findings from patent publication US20040237845A1 (priority 2002, published 2004) are described below.

The format of this assay is physicochemical. As to conditions: kaolin clay slurry, no further addition of acid or chlorine donor.

Take “Sodium Chlorite [stabilized chlorine dioxide]”: the “persistence of oxidizing/biocidal effects” value was “up to 14 days”.
